The values that follow are results of earlier work, collected in article PMC4346355 (Journal of computer-aided molecular design, 2014).

pEC50, pIC50, pKd: −log10 of the molar value. Where two headings read alike, the source gives them in different places. Some results are limits rather than exact numbers.

Data set [1] has as its target interaction of LEDGF with integrase.
Data set [2] deals with strand transfer activity of HIV integrase.
For data set [3], the system named is HIV-1 infection of PBMC cells. The note with it: read-out: EC50 HIV-1 infection of PBMC cells.
The test system of data set [4] is HIV-1 infection of MT-4 cells. The note with it: read-out: EC50 HIV-1 infection of MT-4 cells.
Data set [5] has as its target HIV integrase catalytic core domain core4H (additional Y131D mutation). The note with it: read-out: SPR KD (core4H).
Data set [6] has as its target LEDGF-integrase interaction. The note with it: assay not named.

Regarding `CCCC(C(=O)O)c1c(C)nc2ccc(Cl)cc2c1-c1ccccc1` (centres unmarked) [CX04328], the pIC50 in data set [1] (assay not given, series assayed in AlphaScreen) was 5.86; in data set [2] (read-out: IC50 inhibition of strand transfer activity), 4.71. The pEC50 was 5.46 in data set [3] and 5.56 in data set [4].
With `COc1cccc2c1c(/C(O)=C/C(=O)C(=O)O)cn2Cc1ccc(F)cc1` [CHI-1043], the “inhibition in AlphaScreen assay for binding at the LEDGF site” value in data set [1] was 36 µM. The “inhibition in active site directed strand transfer assay” value in data set [2] is 0.14 µM.
Regarding `C=CCN(Cc1ccccc1C(=O)NCc1ccccc1)Cc1ccc2c(c1C(=O)O)OCO2` [Compound 3ZSX], the pKd in data set [5] is 2.97.
As for `CC[C@H](C)NC(=O)c1ccccc1CN(C)Cc1ccc2c(c1C(=O)O)OCO2` [Compound 3ZSZ], the pKd in data set [5] is below 2.70.
Turning to `CN(Cc1ccccc1C(=O)NCC1CCCCC1)Cc1ccc2c(c1C(=O)O)OCO2` [Compound 3ZSY], the pKd in data set [5] is below 2.70.
Turning to `O=C(NCC1CCCCC1)c1cc(S(=O)(=O)N2CCCCC2)cc(O)c1O` [N-(cyclohexylmethyl)-2,3-dihydroxy-5-(piperidin-1-ylsulfonyl) benzamide], the pIC50 was 5.10 in data set [6] and 4.72 in data set [2] (read-out: IC50 strand transfer).

Usually pIC50 stands for the IC50 on a negative log10 scale, so that one unit is a factor of ten. By pEC50 is commonly meant the negative decadic logarithm of the EC50, by convention in mol/L. A word on the pKd: it is the Kd on a negative log10 scale, so that one unit is a factor of ten.
